These results are taken from publication PMC5706701, “Development of a homogenous high-throughput assay for inositol hexakisphosphate kinase 1 activity” (PLoS ONE, 2017).

Structures are written as SMILES. Counter-ions that a name gives are not always drawn.

The experiment has as its target T1, Human IP6K1 (Homo sapiens, UniProt Q92551).
T1 construct: GST (N, cleaved yes); made in house; host or cells: C43 E. coli, pGEX-6P-2
In words: IP6K1 high-throughput screen of the Sigma LOPAC (ADP-Glo Max, single point).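 Also: final compound concentration 10µM in 5% DMSO.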 In kind it is biochemical. A general note: ADP-Glo turns the ADP formed in a reaction into a luminescent signal.

Setting [1] is: LOPAC single-point screen, ADP-Glo Max raw signal per well.
Where [2] appears, read: LOPAC single-point screen, Z-score from raw signal with plate average and StDev.
Where [3] appears, read: LOPAC single-point screen, ADP-Glo Max luminescence raw signal per well.
Setting [4] is: LOPAC single-point screen, Z-score relative to plate average and StDev.
Where [5] appears, read: Sigma LOPAC single-point screen, ADP-Glo Max raw signal per well.
The mark [6] stands for this setting: Sigma LOPAC single-point screen, Z-score from plate average and StDev.
The mark [7] stands for this setting: LOPAC single-point screen, Z-score against plate average and StDev.

T1 sequence (Q92551 whole entry): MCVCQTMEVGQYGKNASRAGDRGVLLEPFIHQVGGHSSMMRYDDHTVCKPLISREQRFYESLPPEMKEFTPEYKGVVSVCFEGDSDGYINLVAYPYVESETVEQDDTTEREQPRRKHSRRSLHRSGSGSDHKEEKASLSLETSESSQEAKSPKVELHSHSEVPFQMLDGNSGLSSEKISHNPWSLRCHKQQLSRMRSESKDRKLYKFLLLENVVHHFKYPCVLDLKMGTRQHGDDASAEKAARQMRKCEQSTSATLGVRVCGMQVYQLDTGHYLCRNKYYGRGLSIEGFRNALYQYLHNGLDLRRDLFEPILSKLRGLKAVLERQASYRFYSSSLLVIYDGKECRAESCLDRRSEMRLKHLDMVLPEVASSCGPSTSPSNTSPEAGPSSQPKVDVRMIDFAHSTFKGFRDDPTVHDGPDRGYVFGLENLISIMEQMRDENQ

Take `Nc1c2c(nc3ccccc13)CCCC2O.O=C(O)/C=C\C(=O)O` (centres unmarked) [Hydroxytacrine maleate]: the “Raw Signal” value under setting [1] was determined as 53095. Also, the Z-score under setting [2] is reported as -0.4208.
Turning to `O=C(O)/C=C/c1ccc(O)c(O)c1` [Caffeic Acid], the “Raw Signal” value under setting [1] is listed as 56687. For the same compound, the Z-score under setting [2] is -0.216.
As to `O=C(O)C1=CC(=C(c2ccc(O)c(C(=O)O)c2)c2ccc(O)c(C(=O)O)c2)C=CC1=O` [Aurintricarboxylic acid], the “Raw Signal” value under setting [3] was 8090. Moreover, the Z-score under setting [4] is listed as -8.775.
As for `C=C1C(=O)O[C@H]2[C@H]1CC/C(C)=C/CC[C@@]1(C)O[C@@H]21` [Parthenolide], under setting [5], the “Raw Signal” value was 56472. This compound came in with a Z-score under setting [6] of 0.3492.
Take `O=c1c(O)c(-c2ccc(O)c(O)c2)oc2cc(O)cc(O)c12` [Quercetin dihydrate]: under setting [3], the “Raw Signal” value stood at 52548. The compound also showed a Z-score under setting [4] of -0.6753.
Turning to `CCCCCCCCCC(=O)N[C@H](CN1CCOCC1)[C@H](O)c1ccccc1.Cl` (racemic), under setting [5], the “Raw Signal” value was 58472. The compound also came in with a Z-score under setting [6] of 0.4756.
In the case of `CCCN1CCOC2c3cc(O)ccc3OCC21.Cl` (racemic) [(±)-PD 128,907 hydrochloride], under setting [3], the “Raw Signal” value is recorded as 53572. This compound registered a Z-score under setting [4] of -0.4763.
For `Nc1nc(N)c2nc(CNc3ccc(C(=O)N[C@@H](CCC(=O)O)C(=O)O)cc3)cnc2n1` [Aminopterin], the “Raw Signal” value under setting [1] is 55514. Under setting [2], this compound displayed a Z-score of -0.4225.
`Cl.O=C(O)Cc1c[nH]cn1` [Imidazole-4-acetic acid hydrochloride]: under setting [1], the “Raw Signal” value worked out at 55616. For the same compound, the Z-score under setting [7] is on record as 0.09118.
Consider `O=NN(CCCl)C(=O)NCCCl` [Carmustine], for which the “Raw Signal” value under setting [3] is given as 54247. The compound also yielded a Z-score under setting [4] of -0.6457.
Consider `NCCCS(=O)(=O)O.[Na]` [3-Amino-1-propanesulfonic acid sodium], for which the “Raw Signal” value under setting [3] is recorded as 52858. Besides, the Z-score under setting [4] was -0.8903.
As to `CCC(=O)c1ccc2c(c1)N(CCCN(C)C)c1ccccc1S2` [Propionylpromazine hydrochloride], the “Raw Signal” value under setting [1] amounted to 56049. The compound also registered a Z-score under setting [7] of 0.004895.
Consider `Oc1cc2c(cc1O)CN(C(=S)NCCc1ccc(Cl)cc1)CCC2` [Capsazepine], for which the “Raw Signal” value under setting [1] amounted to 54995. This compound also displayed a Z-score under setting [7] of -0.03494.
On to `N/C(=N\C(=O)c1nc(Cl)c(N)nc1N)NCc1ccc(Cl)c(Cl)c1` [3 ,4 -Dichlorobenzamil], for which, under setting [1], the “Raw Signal” value worked out at 56444. The same compound came in with a Z-score under setting [7] of 0.2593.
With `C[N+]1(C)[C@@H]2CC[C@H]1C[C@@H](OC(=O)C(CO)c1ccccc1)C2` (some centres unmarked) [Atropine methyl bromide], under setting [3], the “Raw Signal” value is 52228. This compound showed a Z-score under setting [4] of -1.0013.
Consider `CN(C)c1nc(N)c(C(=O)NC(=N)N)nc1Cl` [5-(N,N-Dimethyl)amiloride hydrochloride], for which the “Raw Signal” value under setting [1] worked out at 56769. For the same compound, the Z-score under setting [2] is recorded as -0.2015.
As for `Cc1ccc(C(=O)Nc2ccc(S(=O)(=O)O)c3cc(S(=O)(=O)O)cc(S(=O)(=O)O)c23)cc1NC(=O)c1cccc(NC(=O)Nc2cccc(C(=O)Nc3cc(C(=O)Nc4ccc(S(=O)(=O)O)c5cc(S(=O)(=O)O)cc(S(=O)(=O)O)c45)ccc3C)c2)c1` [Suramin hexasodium], the “Raw Signal” value under setting [3] was 10286. This compound gave a Z-score under setting [4] of -8.886.
In the case of `Cn1cnc2c1c(=O)[nH]c(=O)n2C` [Theobromine], under setting [3], the “Raw Signal” value was 52921. The compound also came in with a Z-score under setting [4] of -0.6028.
Turning to `CC[C@@H](CO)NC(=O)[C@@H]1C=C2c3cccc4c3c(cn4C)C[C@H]2N(C)C1` [Methysergide maleate], the “Raw Signal” value under setting [1] stood at 55881. The Z-score under setting [7] was 0.2499.
Regarding `C[C@]12C[C@H](O)[C@H]3[C@@H](CCC4=CC(=O)CC[C@@]43C)[C@@H]1CC[C@@H]2C(=O)CO` [Corticosterone], the “Raw Signal” value under setting [1] is on record as 55741. The Z-score under setting [2] is -0.3826.
As to `O=C(O)C1CN(CCCP(=O)(O)O)CCN1` (racemic) [(±)-CPP], under setting [5], the “Raw Signal” value is 59493. Moreover, the Z-score under setting [6] was determined as 0.8786.
Consider `CNC(=C[N+](=O)[O-])NCCSCc1ccc(CN(C)C)o1` [Ranitidine hydrochloride], for which the “Raw Signal” value under setting [1] is 57122. Further, under setting [7], the Z-score is on record as 0.2134.
As for `C=CCN1CC[C@]23c4c5ccc(O)c4O[C@H]2/C(=N/NC(=O)c2ccccc2)CC[C@@]3(O)[C@H]1C5` [Naloxone benzoylhydrazone], the “Raw Signal” value under setting [5] is on record as 57821. The Z-score under setting [6] is reported as 0.5759.
As to `COc1cc2c(cc1C(F)(F)F)N(C(=O)Nc1cc(F)cc(-c3cccnc3)c1)CC2` [SB 228357], the “Raw Signal” value under setting [5] is reported as 58844. Moreover, under setting [6], the Z-score is listed as 0.7468.
As for `CSC(=N)N.CSC(=N)N.O=S(=O)(O)O` [S-Methylisothiourea hemisulfate], the “Raw Signal” value under setting [1] worked out at 51759. This compound also displayed a Z-score under setting [2] of -0.4427.
On to `CC(=O)[C@H]1CC[C@H]2[C@@H]3CC[C@H]4C[C@H](O)CC[C@]4(C)[C@H]3CC[C@]12C` [5alpha-Pregnan-3alpha-ol-20-one], for which the “Raw Signal” value under setting [1] is listed as 55941. The Z-score under setting [7] is -0.01609.
For the compound `CC(C)C[C@H](NP(=O)([O-])O[C@H]1O[C@H](C)[C@@H](O)[C@H](O)[C@@H]1O)C(=O)N[C@@H](Cc1c[nH]c2ccccc12)C(=O)[O-].[Na+].[Na+]` [Phosphoramidon disodium], under setting [1], the “Raw Signal” value was determined as 56521. The compound further gave a Z-score under setting [7] of 0.0966.
Turning to `COc1ccc2c(c1)[C@@]13CCCC[C@H]1[C@@H](C2)NCC3.Cl` [3-Methoxy-morphanin hydrochloride], under setting [1], the “Raw Signal” value came to 54071. Besides, the Z-score under setting [7] was -0.05419.
For the compound `N#Cc1cc2nc([O-])c([O-])nc2cc1[N+](=O)[O-].[Na+].[Na+]` [CNQX disodium], the “Raw Signal” value under setting [1] stood at 53180. The compound further returned a Z-score under setting [2] of -0.4035.
In the case of `C[C@H](N)CN1CCc2ccc(Br)cc21.C[C@H](N)CN1CCc2ccc(Br)cc21.O=C(O)/C=C/C(=O)O` [VER-3323 hemifumarate salt], the “Raw Signal” value under setting [5] is on record as 59728. This compound also yielded a Z-score under setting [6] of 0.8963.
In the case of `CCCN(CCC)[C@@H]1CCc2c(F)ccc(O)c2C1.Cl` [R(+)-UH-301 hydrochloride], under setting [1], the “Raw Signal” value is on record as 54775. Further, the Z-score under setting [2] is -0.2426.
For `CCc1c(C(=O)OC)ncc2[nH]c3cc(OC)c(OC)cc3c12`, under setting [5], the “Raw Signal” value is given as 57006. Under setting [6], this compound yielded a Z-score of 0.3735.
As for `COc1ccc(CN(CCN(C)C)c2ccccn2)cc1` [Pyrilamine maleate], under setting [5], the “Raw Signal” value was found to be 60252. For the same compound, the Z-score under setting [6] was found to be 0.9844.
The corresponding values for `CCOC(=O)C1=C[C@]2(CC)CCCN3CCc4c(n1c1ccccc41)[C@@H]32` [Vinpocetine] are 59958 and 0.7643.
In the case of `CC(N)c1cccc(Cl)c1Cl.Cl` (racemic), the “Raw Signal” value under setting [1] was 54173. This compound also had a Z-score under setting [2] of -0.2019.
Taken in the same sequence, the figures for `CC(=O)CCCCn1c(=O)c2c(ncn2C)n(C)c1=O` [Pentoxifylline] were 53271 and -0.1886.
Take `CCCCCCCCCCCCCCCCCCOCC(COP(=O)([O-])OCC[N+](C)(C)C)OC` (centres unmarked) [ET-18-OCH3]: the “Raw Signal” value under setting [3] is recorded as 51314. Moreover, the Z-score under setting [4] was -0.7825.
